The data set can be described thus: Solubility of free imiquimod and imiquimod-oleic acid complex (ImO) in water. The class given is physicochemical. The conditions noted are these: for solubility: highest/lowest concentration examined. On the procedure: Nanoparticles (ImiMB) were synthesized using a methylene blue-oleic acid complex (MBO) and Pluronic F-127 with imiquimod in a free imiquimod state without modifying imiquimod with oleic acid. […] Subsequently, 1 ml of distilled water (DW) was used instead of ImO complex solution in the rehydration step of the thin film (FIG. 2).
Therefore, in the present invention, imiquimod was modified with an organic acid to form a cationic adjuvant-organic acid complex for solubility improvement and high-content loading, and then nanoparticles were prepared using the cationic adjuvant-organic acid complex.

Where two headings read alike, the source gives them in different places.

On to `CC(C)Cn1cnc2c(N)nc3ccccc3c21` [free imiquimod, imiquimod], for which the “solubility in water (in words)” value was “not soluble in water”. For the same compound, where the note is “read-out: solubility”, the solubility is less than 100 µg/mL.
In the case of imiquimod-oleic acid complex, the “solubility in water (in words)” value was “particle formation occurred well even at a high concentration of 5.0 mg/ml, maintaining a transparent solution form” and the solubility is not below 5000 µg/mL.

For orientation: solubility means how much of the substance goes into solution per volume.
